In DBAASP:
In brackets after ≈: the same amount, converted by molar mass.

Assays:
Test in all cases: ≥ marks a high value that may be exact or a test limit, other limits are often not marked, values filed in µg/mL are converted to µM
Escherichia coli D31 = test system: Escherichia coli D31
[1] = test system: Staphylococcus aureus ATCC 27660
[2] = test system: Pseudomonas aeruginosa ATCC 10145
[3] = test system: Klebsiella pneumoniae ATCC 700603
[4] = test system: Candida tropicalis 092422
[5] = test system: Pseudomonas aeruginosa 1570
[6] = test system: Pseudomonas aeruginosa 8600
[7] = test system: Pseudomonas aeruginosa 5167
[8] = test system: Staphylococcus aureus 1D00101
[9] = test system: Micrococcus luteus 1D00051
[10] = test system: Vibrio vulnificus 1H00066
[11] = test system: Staphylococcus epidermidis ATCC 35984
[12] = test system: Staphylococcus aureus ATCC 25923
[13] = test system: Staphylococcus aureus ATCC 33591
[14] = test system: Pseudomonas aeruginosa ATCC 27853
[15] = test system: Staphylococcus aureus ATCC 29213
[16] = test system: Pseudomonas aeruginosa ATCC 47615
[17] = test system: Escherichia coli ATCC 25922
Penicillium expansum = test system: Penicillium expansum
Micrococcus luteus A270 = test system: Micrococcus luteus A270
Cladosporium sp. = test system: Cladosporium sp.
Cryptococcus neoformans = test system: Cryptococcus neoformans
[18] = test system: Candida tropicalis IOC 4560
Escherichia coli SBS 363 = test system: Escherichia coli SBS 363
[19] = test system: Candida albicans IOC 4558
[20] = test system: Pseudomonas aeruginosa JC115
Bacillus subtilis JC443 = test system: Bacillus subtilis JC443
[21] = test system: Staphylococcus aureus JC114
Escherichia coli JC113 = test system: Escherichia coli JC113
[22] = test system: Pseudomonas aeruginosa 4891
[23] = test system: Trichosporon beigelii KCTC 7707
[24] = test system: Listeria monocytogenes KCTC 3710
[25] = test system: Escherichia coli CCARM 1238
[26] = test system: Bacillus subtilis KCTC 1998
[27] = test system: Pseudomonas aeruginosa 4007
[28] = test system: Salmonella typhimurium KCTC 1926
[29] = test system: Staphylococcus aureus CCARM 3518
[30] = test system: Escherichia coli CCARM 1229
[31] = test system: Staphylococcus aureus CCARM 3090
[32] = test system: Candida albicans KCTC 7270

## CC[C@H](C)[C@H](NC(=O)CNC(=O)[C@H](CCCCN)NC(=O)[C@H](Cc1ccccc1)NC(=O)[C@H](CC(C)C)NC(=O)[C@H](CCCCN)NC(=O)[C@H](CCCCN)NC(=O)[C@H](C)NC(=O)[C@H](CCCCN)NC(=O)[C@H](CCCCN)NC(=O)[C@H](Cc1ccccc1)NC(=O)CNC(=O)[C@H](CCCCN)NC(=O)[C@H](C)NC(=O)[C@H](Cc1c[nH]c2ccccc12)NC(=O)[C@@H](NC(=O)[C@H](CCCCN)NC(=O)[C@@H](NC(=O)[C@H](CC(C)C)NC(=O)[C@H](CCCCN)NC(=O)[C@@H](N)CCCCN)[C@@H](C)CC)C(C)C)C(=O)NCC(=O)O [KKLIKVWAKGFKKAKKLFKGIG]
Escherichia coli D31
  MIC: 0.94 µM (≈ 2.37 µg/mL)
[1]
  MIC: 0.94 µM (≈ 2.37 µg/mL)
[2]
  MIC: 1.88 µM (≈ 4.73 µg/mL)
[3]
  MIC: 1.88 µM (≈ 4.73 µg/mL)

## CC[C@H](C)[C@H](NC(=O)[C@H](C)NC(=O)[C@@H]1CCCN1C(=O)[C@@H](NC(=O)[C@@H](N)Cc1ccccc1)C(C)C)C(=O)N[C@@H](CC(C)C)C(=O)N[C@H]1CSSC[C@@H](C(=O)O)NC(=O)[C@H]([C@@H](C)O)NC(=O)[C@H](CCCCN)NC(=O)[C@H](CC(C)C)NC(=O)[C@H]([C@@H](C)CC)NC(=O)[C@H](CO)NC1=O [FVPAILCSILKTC]
[4]
  MIC: ≥ 71 µM

## CC(C)C[C@H](NC(=O)[C@H](CC(C)C)NC(=O)[C@H](CCCCN)NC(=O)[C@H](CCCCN)NC(=O)[C@H](CC(C)C)NC(=O)[C@H](CC(C)C)NC(=O)[C@H](CCCCN)NC(=O)[C@H](CC(C)C)NC(=O)[C@H](C)N)C(N)=O [ALKLLKKLL]
[5]
  MIC: ≥ 43.5 µM
[6]
  MIC: 10.9 µM (≈ 11.3 µg/mL)
[7]
  MIC: ≥ 123 µM

## CC[C@H](C)[C@H](NC(=O)[C@H](CS)NC(=O)[C@H](Cc1cnc[nH]1)NC(=O)[C@H](CCCN=C(N)N)NC(=O)[C@@H](N)CCCN=C(N)N)C(=O)N[C@@H](CCCCN)C(=O)N[C@@H](CCCCN)C(=O)N[C@@H](CS)C(=O)N[C@@H](CCSC)C(=O)N[C@@H](CCCCN)C(=O)N[C@@H](CO)C(=O)N[C@@H](CCCN=C(N)N)C(=O)N[C@@H](CCCCN)C(=O)N[C@@H](Cc1cnc[nH]1)C(=O)N[C@@H](CC(N)=O)C(=O)N[C@@H](CCC(=O)O)C(=O)N[C@@H](CCCN=C(N)N)C(=O)N[C@@H](CCSC)C(=O)N[C@H](C(=O)N[C@@H](CCCN=C(N)N)C(=O)N[C@H](C(=O)N[C@@H](CCCN=C(N)N)C(=O)N[C@@H](CCCN=C(N)N)C(=O)N[C@@H](CCCCN)C(=O)O)[C@@H](C)CC)[C@@H](C)CC [RRHCIKKCMKSRKHNERMIRIRRK]
[8]
  MIC: ≥ 40 µM
[9]
  MIC: 5 µM (≈ 15.8 µg/mL)
[10]
  MIC: ≥ 300 µM

## CC[C@H](C)[C@H](NC(=O)[C@H](CCCCN)NC(=O)[C@@H](NC(=O)[C@H](Cc1ccccc1)NC(=O)[C@H](C)NC(=O)[C@H](CCCCN)NC(=O)CNC(=O)[C@H](Cc1ccccc1)NC(=O)[C@H](CCCCN)NC(=O)[C@H](CCCCN)NC(=O)[C@H](C)NC(=O)[C@H](CCCCN)NC(=O)[C@H](CCCCN)NC(=O)[C@H](CC(C)C)NC(=O)[C@H](Cc1ccccc1)NC(=O)[C@@H](N)CCCCN)C(C)C)C(=O)N[C@@H](CC(C)C)C(N)=O [KFLKKAKKFGKAFVKIL]
[11]
  MIC: 1 µM (≈ 2 µg/mL)
[12]
  MIC: 5.67 µM (≈ 11.3 µg/mL)
[13]
  MIC: 16 µM (≈ 32 µg/mL)
[14]
  MIC: 0.251 µM (≈ 0.5 µg/mL)
[15]
  MIC: 15.6 µM (≈ 31.2 µg/mL)
[16]
  MIC: 1.96 µM (≈ 3.91 µg/mL)
[17]
  MIC: 3.91 µM (≈ 7.8 µg/mL)

## CC(C)C[C@H](NC(=O)[C@H](Cc1ccccc1)NC(=O)[C@H](CC(=O)O)NC(=O)CNC(=O)[C@H](CCC(=O)O)NC(=O)CNC(=O)[C@H](CO)NC(=O)[C@H](CC(=O)O)NC(=O)[C@H](C)N)C(=O)N[C@@H](C)C(=O)N[C@@H](CCC(=O)O)C(=O)NCC(=O)NCC(=O)NCC(=O)N[C@H](C(=O)N[C@@H](CCCN=C(N)N)C(=O)O)C(C)C [ADSGEGDFLAEGGGVR]
Penicillium expansum
  MIC: ≥ 59.4 µM
Micrococcus luteus A270
  MIC: ≥ 59.4 µM
Cladosporium sp.
  MIC: ≥ 59.4 µM
[14]
  MIC: 7.39 µM (≈ 11.4 µg/mL)
Cryptococcus neoformans
  MIC: ≥ 59.4 µM
[18]
  MIC: 7.39 µM (≈ 11.4 µg/mL)
Escherichia coli SBS 363
  MIC: 7.39 µM (≈ 11.4 µg/mL)
[19]
  MIC: ≥ 59.4 µM

## NC(=O)[C@H](Cc1ccccc1)NC(=O)[C@@H]1CSSC[C@H](NC(=O)[C@H](Cc2ccccc2)NC(=O)[C@H](Cc2ccccc2)NC(=O)[C@@H](N)Cc2ccccc2)C(=O)N[C@@H](CO)C(=O)N[C@@H](CCCN=C(N)N)C(=O)N1 [FFFCSRCF]
[20]
  MIC: ≥ 157 µM
Bacillus subtilis JC443
  MIC: ≥ 171 µM
[21]
  MIC: ≥ 180 µM
Escherichia coli JC113
  MIC: ≥ 152 µM

## CC[C@H](C)[C@H](NC(=O)CNC(=O)[C@H](CCC(N)=O)NC(=O)[C@H](CO)NC(=O)[C@@H](NC(=O)[C@H](CCCCN)NC(=O)[C@H](CCCCN)NC(=O)[C@H](CC(C)C)NC(=O)[C@H](C)NC(=O)[C@H](CC(N)=O)NC(=O)[C@H](CC(C)C)NC(=O)CN)C(C)C)C(=O)N[C@@H](Cc1cnc[nH]1)C(=O)N[C@@H](CCC(=O)O)C(=O)N[C@@H](CO)C(=O)N[C@H](C(=O)N[C@@H](CCCCN)C(=O)N[C@@H](CC(C)C)C(=O)N[C@H](C(=O)N[C@@H](CC(N)=O)C(=O)N[C@@H](CC(N)=O)C(=O)N[C@@H](Cc1cnc[nH]1)C(=O)N[C@H](C(=O)N[C@@H](CCC(N)=O)C(N)=O)C(C)C)[C@@H](C)CC)[C@@H](C)CC [GLNALKKVSQGIHESIKLINNHVQ]
[22]
  MIC: ≥ 64 µM
[23]
  MIC: ≥ 64 µM
[24]
  MIC: ≥ 32 µM
[12]
  MIC: 32 µM (≈ 84.5 µg/mL)
[25]
  MIC: ≥ 64 µM
[26]
  MIC: ≥ 32 µM
[27]
  MIC: ≥ 64 µM
[14]
  MIC: 16 µM (≈ 42.2 µg/mL)
[28]
  MIC: 16 µM (≈ 42.2 µg/mL)
[29]
  MIC: ≥ 64 µM
[30]
  MIC: ≥ 64 µM
[31]
  MIC: ≥ 64 µM
[17]
  MIC: 16 µM (≈ 42.2 µg/mL)
[32]
  MIC: ≥ 64 µM
